Test results as given in the supplement of paper PMC11061612.

Key:
[1] = compound: CC(=O)Nc1cccc(-n2c(=O)n(C3CC3)c(=O)c3c(Nc4ccc(I)cc4F)n(C)c(=O)c(C)c32)c1 [Trametinib]; conditions: max 1 µM
How it was run: (§1)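 In 1536-well plates, cancer cell lines in 7.5 μl DMEM/F12 or RPMI with 10% FBS spent 24 hours at 37°C and 5% CO2 and were then dosed for 72 hours with final DMSO typically 0.2%. Viability was read by CellTiter-Glo 2.0 luminescence and scaled between blank-well and DMSO-well means. The single-agent IC50 was fitted from dose responses using a logistic curve in a non-linear mixed effects model, and that logistic curve had two parameters.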

[2] = compound: CC(C)n1c(=O)n(C)c2cnc3cc(F)c(-c4ccc(OCCCN5CCCCC5)nc4)cc3c21 [AZD1390]; conditions: max 0.3 µM
How it was run: as §1

[3] = compound: COc1nnc2ccc(N3CCC(c4ccc(OCCN5CCN(C)C(=O)[C@H]5C)cc4)CC3)nn12 [AZD5153]; conditions: max 1 µM
How it was run: as §1

[4] = compound: CC1=CN2[C@@H](C1)C=NC3=CC(=C(C=C3C2=O)OC)OCCCCCOC4=C(C=C5C(=C4)N=C[C@@H]6CC(=CN6C5=O)C)OC [SG3199]; conditions: max 0.001 µM
How it was run: as §1

[5] = compound: COc1cc2ncnc(Nc3ccc(F)c(Cl)c3)c2cc1OCCCN1CCOCC1 [Gefitinib]; conditions: max 10 µM
How it was run: as §1

[6] = compound: C[C@@H](Nc1cc(F)cc(F)c1)c1cc(C(=O)N(C)C)cc2c(=O)cc(N3CCOCC3)oc12 [AZD8186]; conditions: max 3 µM
How it was run: as §1

[7] = compound: CN(C)CCCOc1ccc(-c2ccc3ncc4c(c3c2)n(C2CCOCC2)c(=O)n4C)cn1 [AZD0156]; conditions: max 3 µM
How it was run: as §1

[8] = compound: C1CN(CCC1(C(=O)N[C@@H](CCO)C2=CC=C(C=C2)Cl)N)C3=NC=NC4=C3C=CN4 [Capivasertib]; conditions: max 10 µM
How it was run: as §1

[9] = compound: C[C@@H](Oc1cc(-c2cnn(C3CCNCC3)c2)cnc1N)c1c(Cl)ccc(F)c1Cl [Crizotinib]; conditions: max 10 µM
How it was run: as §1

[10] = compound: CS(=O)(=O)CCNCc1ccc(-c2ccc3ncnc(Nc4ccc(OCc5cccc(F)c5)c(Cl)c4)c3c2)o1 [Lapatinib]; conditions: max 10 µM
How it was run: as §1

[11] = compound: CC1=C(C(=CC=C1)Cl)NC(=O)C2=CN=C(S2)NC3=CC(=NC(=N3)C)N4CCN(CC4)CCO [Dasatinib]; conditions: max 2 µM
How it was run: as §1

[12] = compound: COc1cccc2c1C(=O)c1c(O)c3c(c(O)c1C2=O)C[C@@](O)(C(=O)CO)C[C@@H]3O[C@H]1C[C@H](N)[C@H](O)[C@H](C)O1 [Doxorubicin]; conditions: max 1 µM
How it was run: as §1

[13] = compound: CCN(CCO)CCCOc1ccc2c(Nc3cc(CC(=O)Nc4cccc(F)c4)[nH]n3)ncnc2c1 [AZD2811]; conditions: max 1 µM
How it was run: as §1

[14] = compound: Cc1c2c(nn1C)CSCc1cc(n(C)n1)CSc1cc(c3ccccc3c1)OCCCc1c(C(=O)O)n(C)c3c-2c(Cl)ccc13 [AZD5991]; conditions: max 1 µM
How it was run: as §1

[15] = compound: CN(CC[C@H](CSC1=CC=CC=C1)NC2=C(C=C(C=C2)S(=O)(=O)NC(=O)C3=CC=C(C=C3)N4CCC(CC4)[C@H](C5=CC=CC=C5C6=CC=C(C=C6)Cl)O)S(=O)(=O)C(F)(F)F)CCO [AZD4320]; conditions: max 1 µM
How it was run: as §1

[16] = compound: C[C@@H](c1ccc2nccn2c1)n1nnc2ncc(-c3cnn(C)c3)nc21 [Savolitinib]; conditions: max 1 µM
How it was run: as §1

[17] = compound: O=C(c1cc(Cc2n[nH]c(=O)c3ccccc23)ccc1F)N1CCN(C(=O)C2CC2)CC1 [Olaparib]; conditions: max 10 µM
How it was run: as §1

[18] = compound: COc1cccc(OCCCN)c1-c1cc(Nc2cnc(C#N)cn2)n[nH]1 [Prexasertib]; conditions: max 1 µM
How it was run: as §1

[19] = compound: CC(=O)c1c(C)c2cnc(Nc3ccc(N4CCNCC4)cn3)nc2n(C2CCCC2)c1=O [Palbociclib]; conditions: max 10 µM
How it was run: as §1

[20] = compound: Cc1nc(-c2cn3c(n2)-c2ccc(-c4cnn(C(C)(C)C(N)=O)c4)cc2OCC3)n(C(C)C)n1 [Taselisib]; conditions: max 10 µM
How it was run: as §1

[21] = compound: Cn1cnc2c(F)c(Nc3ccc(Br)cc3Cl)c(C(=O)NOCCO)cc21 [Selumetinib]; conditions: max 10 µM
How it was run: as §1

[22] = compound: CCc1c2c(nc3ccc(O)cc13)-c1cc3c(c(=O)n1C2)COC(=O)[C@]3(O)CC [SN-38]; conditions: max 0.3 µM
How it was run: as §1

[23] = compound: COc1cc(Nc2ncc3c(n2)-c2ccc(Cl)cc2C(c2c(F)cccc2OC)=NC3)ccc1C(=O)O [Alisertib]; conditions: max 10 µM
How it was run: as §1

[24] = compound: C=CCn1c(=O)c2cnc(Nc3ccc(N4CCN(C)CC4)cc3)nc2n1-c1cccc(C(C)(C)O)n1 [AZD1775]; conditions: max 3 µM
How it was run: as §1

[25] = compound: Cc1cc2ncnn2cc1Nc1ncc2c(n1)n(C1CCOCC1)c(=O)n2C [AZD7648]; conditions: max 10 µM
How it was run: as §1

[26] = compound: C[C@@H]1COCCN1C2=NC(=NC(=C2)C3(CC3)[S@](=N)(=O)C)C4=C5C=CNC5=NC=C4 [AZD6738]; conditions: max 10 µM
How it was run: as §1

[27] = compound: CC1(C)CCC(CN2CCN(c3ccc(C(=O)NS(=O)(=O)c4ccc(NCC5CCOCC5)c([N+](=O)[O-])c4)c(Oc4cnc5[nH]ccc5c4)c3)CC2)=C(c2ccc(Cl)cc2)C1 [Venetoclax]; conditions: max 1 µM
How it was run: as §1

| Cell Line | IC50, cell viability 72 h [1] [µM] | IC50, cell viability 72 h [2] [µM] | IC50, cell viability 72 h [3] [µM] | IC50, cell viability 72 h [4] [µM] | IC50, cell viability 72 h [5] [µM] | IC50, cell viability 72 h [6] [µM] | IC50, cell viability 72 h [7] [µM] | IC50, cell viability 72 h [8] [µM] | IC50, cell viability 72 h [9] [µM] | IC50, cell viability 72 h [10] [µM] | IC50, cell viability 72 h [11] [µM] | IC50, cell viability 72 h [12] [µM] | IC50, cell viability 72 h [13] [µM] | IC50, cell viability 72 h [14] [µM] | IC50, cell viability 72 h [15] [µM] | IC50, cell viability 72 h [16] [µM] | IC50, cell viability 72 h [17] [µM] | IC50, cell viability 72 h [18] [µM] | IC50, cell viability 72 h [19] [µM] | IC50, cell viability 72 h [20] [µM] | IC50, cell viability 72 h [21] [µM] | IC50, cell viability 72 h [22] [µM] | IC50, cell viability 72 h [23] [µM] | IC50, cell viability 72 h [24] [µM] | IC50, cell viability 72 h [25] [µM] | IC50, cell viability 72 h [26] [µM] | IC50, cell viability 72 h [27] [µM] |
| --- | --- | --- | --- | --- | --- | --- | --- | --- | --- | --- | --- | --- | --- | --- | --- | --- | --- | --- | --- | --- | --- | --- | --- | --- | --- | --- | --- |
| CA46 (Burkitt's Lymphoma) | > 1 | > 0.3 | 0.232 | > 0.001 | > 10 | > 3 | > 3 | > 10 | > 10 | > 10 | > 2 | > 1 | > 1 | > 1 | > 1 | > 1 | > 10 | 0.142 | > 10 | > 10 | > 10 | 0.135 | > 10 | 0.579 | > 10 | > 10 | > 1 |
| CAL-27 (Oral Cavity Carcinoma) | 0.129 | > 0.3 | 0.426 | > 0.001 | 0.839 | > 3 | > 3 | > 10 | > 10 | 0.933 | 0.431 | 0.927 | 0.608 | 0.413 | > 1 | > 1 | > 10 | 0.894 | > 10 | 0.854 | 1.89 | 0.0136 | 0.443 | 1.85 | > 10 | > 10 | > 1 |
| CESS (Acute Myeloid Leukemia) | > 1 | > 0.3 | 0.297 | > 0.001 | > 10 | 2.14 | > 3 | 4.12 | 4.01 | > 10 | 1.4 | 0.237 | > 1 | > 1 | > 1 | > 1 | > 10 | 0.0122 | 8.03 | 7.4 | > 10 | 0.00615 | 0.107 | 0.353 | > 10 | 2.08 | > 1 |
| COLO-792 (Melanoma) | 0.11 | > 0.3 | 0.512 | > 0.001 | > 10 | > 3 | > 3 | > 10 | 5.38 | > 10 | > 2 | > 1 | > 1 | 0.238 | 0.788 | > 1 | > 10 | > 1 | > 10 | 1.69 | 5.94 | > 0.3 | > 10 | 2.29 | > 10 | > 10 | > 1 |
